According to patent US10287265B2, “Enantiomers of 8-hydroxyquinoline derivatives and the synthesis thereof” (AVIDIN Co. Ltd., priority 2015, dated 2019):

What was measured:
[1] = system: C57BL6/J mice; test: Short-term memory impairment caused by amyloid peptide aggregates (icv Aβ oligomers), Y maze test; assay type: in vivo, mouse; conditions: Y maze at day 4 post Aβ
Procedure: (§1) In vivo experiments were carried out according to the National Institute of Health guidelines for the care and use of laboratory animals, approved by the French Ministry for Research and Technology. In the course of experiments, animals were housed at a standard temperature (22±1° C.) and in a light-controlled environment (lights on from 7 a.m. to 8 p.m.) with ad libitum access to food and water. Male C57BL/6 mice (C57BL/6J Rj, ref. SC-CJ-12w-M, Janvier, France) were housed 5 animals per cage. From one week before the start of the experiment until the end of the experiment, mice were housed individually. Animals were monitored twice-a-day by laboratory personnel (8 a.m. and 4 p.m.). In this project, young (14 weeks old) as well as aged (15-16 months old) mice were used. Experiments were carried out using 12 mice per experimental group.
Investigation of short-term working memory—Y maze test Y maze tests were carried out as previously described. Prior to testing, mice were brought to the experimental room for at least 30 min to acclimatize to experimental room conditions. The Y maze is made of opaque Plexiglas and each arm is 40 cm long, 16 cm high, 9 cm wide and positioned at equal angles. The apparatus was placed in the test room in such a way that it was brightened homogeneously with 12-15 lux in the arms as well as in the central zone. One mouse at a time was placed at the end of one arm and was allowed to move in the maze freely during a 5 min examination. Each arm entry was recorded with those entries being counted where the mouse completely placed its hind paws in the chosen arm. […] Results were calculated as the percentage of the ratio of actual detected alternations to possible alternations (defined as the number of total arm entries minus 2).
For the examination of memory impairment caused by Aβ oligomers, a mouse model developed and validated by SynAging was used. […] At day 4 post Aβ treatment, short-term memory was assessed with the Y maze test. […]
At day 4 post Aβ treatment, short-term memory was assessed with the Y maze test.

[2] = system: C57BL6/J mice; test: Scopolamine-induced short-term memory impairment, Y maze test; assay type: in vivo, mouse; conditions: per os gavage; scopolamine 0.6 mg/kg i.p. 30 min prior to Y maze test
Procedure: as §1
Investigation of short-term working memory—Y maze test Y maze tests were carried out as previously described. Prior to testing, mice were brought to the experimental room for at least 30 min to acclimatize to experimental room conditions. […] Each arm entry was recorded with those entries being counted where the mouse completely placed its hind paws in the chosen arm. […] Results were calculated as the percentage of the ratio of actual detected alternations to possible alternations (defined as the number of total arm entries minus 2). […]

What does the source list for `Cc1ccnc(N[C@H](c2ccc(C(F)(F)F)cc2)c2ccc3cccnc3c2O)n1` [Example 2, 7-[(R)-[(4-Methylpyrimidin-2-yl)amino][4-(trifluoromethyl)phenyl]methyl]quinolin-8-ol]?
inhibition of short-term memory impairment caused by fibrillar aggregates of amyloid peptides ([1]; 4 mg/kg body weight per os once daily for four days): inhibited; inhibition of short-term memory impairment caused by fibrillar aggregates of amyloid peptides, dose dependence ([1]; 0.5, 2 and 4 mg/kg body weight per os once daily for four days): in a dose-dependent manner; inhibition of scopolamine-induced short-term memory impairment [2]: inhibited
